Test results taken from ChEMBL document CHEMBL5291721, “A preclinical secondary pharmacology resource illuminates target-adverse drug reaction associations of marketed drugs” (Nat Commun, 2023).

Legend:
[1] = molecular target: 3',5'-cyclic-AMP phosphodiesterase 4A (Homo sapiens, UniProt P27815); format: functional
[2] = molecular target: 5-hydroxytryptamine receptor 2B (Homo sapiens, UniProt P41595); format: functional, cell-based
[3] = molecular target: T1, 5-hydroxytryptamine receptor 1A (Homo sapiens, UniProt P08908)
T1 sequence (P08908 whole entry): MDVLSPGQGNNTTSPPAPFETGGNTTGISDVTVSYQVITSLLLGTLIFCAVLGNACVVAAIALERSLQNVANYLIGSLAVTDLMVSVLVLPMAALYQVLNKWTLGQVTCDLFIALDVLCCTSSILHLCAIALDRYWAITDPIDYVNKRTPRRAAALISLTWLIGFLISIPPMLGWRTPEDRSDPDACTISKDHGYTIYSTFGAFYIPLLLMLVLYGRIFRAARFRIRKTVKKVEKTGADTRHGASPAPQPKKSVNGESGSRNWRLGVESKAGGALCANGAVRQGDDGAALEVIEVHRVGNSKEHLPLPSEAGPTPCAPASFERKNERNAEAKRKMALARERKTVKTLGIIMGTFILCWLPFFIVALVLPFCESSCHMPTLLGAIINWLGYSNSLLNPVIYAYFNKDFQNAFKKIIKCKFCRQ

Bile salt export pump = Bile salt export pump (Homo sapiens, UniProt O95342); format: functional
Bile salt export pump, sequence (O95342 whole entry): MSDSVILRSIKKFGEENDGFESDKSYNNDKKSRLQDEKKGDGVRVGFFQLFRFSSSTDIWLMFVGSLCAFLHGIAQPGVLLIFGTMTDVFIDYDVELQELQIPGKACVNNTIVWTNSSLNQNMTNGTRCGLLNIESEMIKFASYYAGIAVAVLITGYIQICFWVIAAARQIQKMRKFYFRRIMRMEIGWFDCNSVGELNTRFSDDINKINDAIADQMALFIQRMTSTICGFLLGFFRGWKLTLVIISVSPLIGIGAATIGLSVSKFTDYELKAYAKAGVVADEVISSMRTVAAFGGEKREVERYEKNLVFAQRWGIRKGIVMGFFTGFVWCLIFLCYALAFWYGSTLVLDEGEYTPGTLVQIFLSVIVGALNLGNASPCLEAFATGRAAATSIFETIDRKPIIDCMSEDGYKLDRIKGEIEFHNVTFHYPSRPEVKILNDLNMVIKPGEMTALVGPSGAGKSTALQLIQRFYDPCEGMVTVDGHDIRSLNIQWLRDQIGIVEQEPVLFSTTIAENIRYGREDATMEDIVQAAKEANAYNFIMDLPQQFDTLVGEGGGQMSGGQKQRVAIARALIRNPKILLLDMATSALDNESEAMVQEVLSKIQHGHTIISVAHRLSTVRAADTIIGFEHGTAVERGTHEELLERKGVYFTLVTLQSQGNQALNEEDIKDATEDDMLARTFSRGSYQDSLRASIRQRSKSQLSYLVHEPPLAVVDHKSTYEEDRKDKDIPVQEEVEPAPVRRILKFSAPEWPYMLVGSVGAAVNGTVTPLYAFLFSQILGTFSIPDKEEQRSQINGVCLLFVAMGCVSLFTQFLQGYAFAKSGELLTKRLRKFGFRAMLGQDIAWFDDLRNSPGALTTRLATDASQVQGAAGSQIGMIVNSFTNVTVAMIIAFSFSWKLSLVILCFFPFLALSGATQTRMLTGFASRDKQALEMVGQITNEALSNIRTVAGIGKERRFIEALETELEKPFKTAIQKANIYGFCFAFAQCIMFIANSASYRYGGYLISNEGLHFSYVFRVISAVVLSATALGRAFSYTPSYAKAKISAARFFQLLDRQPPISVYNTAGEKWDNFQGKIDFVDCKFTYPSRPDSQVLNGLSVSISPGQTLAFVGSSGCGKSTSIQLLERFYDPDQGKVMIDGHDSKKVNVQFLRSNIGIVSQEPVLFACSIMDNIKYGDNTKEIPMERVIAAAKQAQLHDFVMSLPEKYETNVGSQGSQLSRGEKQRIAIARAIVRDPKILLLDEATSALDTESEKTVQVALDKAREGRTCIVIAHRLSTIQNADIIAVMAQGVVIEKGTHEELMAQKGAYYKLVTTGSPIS

Mu-type opioid receptor = Mu-type opioid receptor (Homo sapiens, UniProt P35372)
D(3) dopamine receptor = D(3) dopamine receptor (Homo sapiens, UniProt P35462)
[4] = molecular target: T2, Prostaglandin G/H synthase 1 (Homo sapiens, UniProt P23219); format: functional
D(1A) dopamine receptor = D(1A) dopamine receptor (Homo sapiens, UniProt P21728)
D(1A) dopamine receptor, sequence (P21728 whole entry): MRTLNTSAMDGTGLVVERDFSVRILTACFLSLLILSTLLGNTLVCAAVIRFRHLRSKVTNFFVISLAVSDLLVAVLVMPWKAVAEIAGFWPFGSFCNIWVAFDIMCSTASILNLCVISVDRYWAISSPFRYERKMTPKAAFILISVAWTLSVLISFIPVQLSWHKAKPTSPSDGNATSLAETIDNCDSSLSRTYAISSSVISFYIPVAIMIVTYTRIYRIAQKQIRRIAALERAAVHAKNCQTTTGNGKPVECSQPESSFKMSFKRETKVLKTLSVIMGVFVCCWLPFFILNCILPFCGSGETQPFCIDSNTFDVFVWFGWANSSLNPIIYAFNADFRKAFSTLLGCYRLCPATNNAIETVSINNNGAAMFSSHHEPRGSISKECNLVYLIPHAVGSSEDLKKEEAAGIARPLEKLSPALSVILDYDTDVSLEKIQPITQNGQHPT

[5] = molecular target: T3, Muscarinic acetylcholine receptor M2 (Homo sapiens, UniProt P08172)
T3 sequence (P08172 whole entry): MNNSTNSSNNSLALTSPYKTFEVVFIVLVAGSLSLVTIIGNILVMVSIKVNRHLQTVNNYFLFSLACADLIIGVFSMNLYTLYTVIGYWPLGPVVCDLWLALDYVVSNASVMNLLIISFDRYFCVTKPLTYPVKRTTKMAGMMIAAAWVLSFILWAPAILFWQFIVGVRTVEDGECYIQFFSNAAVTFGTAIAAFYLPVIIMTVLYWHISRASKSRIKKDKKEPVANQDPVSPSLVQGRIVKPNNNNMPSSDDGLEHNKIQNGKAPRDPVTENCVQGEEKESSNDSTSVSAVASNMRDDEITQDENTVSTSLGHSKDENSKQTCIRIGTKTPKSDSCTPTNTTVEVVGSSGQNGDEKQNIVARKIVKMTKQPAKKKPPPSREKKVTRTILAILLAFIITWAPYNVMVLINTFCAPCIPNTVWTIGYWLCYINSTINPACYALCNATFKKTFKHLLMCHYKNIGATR

Histamine H3 receptor = Histamine H3 receptor (Homo sapiens, UniProt Q9Y5N1)
Acetylcholinesterase = Acetylcholinesterase (Homo sapiens, UniProt P22303); format: functional
Acetylcholinesterase, sequence (P22303 whole entry): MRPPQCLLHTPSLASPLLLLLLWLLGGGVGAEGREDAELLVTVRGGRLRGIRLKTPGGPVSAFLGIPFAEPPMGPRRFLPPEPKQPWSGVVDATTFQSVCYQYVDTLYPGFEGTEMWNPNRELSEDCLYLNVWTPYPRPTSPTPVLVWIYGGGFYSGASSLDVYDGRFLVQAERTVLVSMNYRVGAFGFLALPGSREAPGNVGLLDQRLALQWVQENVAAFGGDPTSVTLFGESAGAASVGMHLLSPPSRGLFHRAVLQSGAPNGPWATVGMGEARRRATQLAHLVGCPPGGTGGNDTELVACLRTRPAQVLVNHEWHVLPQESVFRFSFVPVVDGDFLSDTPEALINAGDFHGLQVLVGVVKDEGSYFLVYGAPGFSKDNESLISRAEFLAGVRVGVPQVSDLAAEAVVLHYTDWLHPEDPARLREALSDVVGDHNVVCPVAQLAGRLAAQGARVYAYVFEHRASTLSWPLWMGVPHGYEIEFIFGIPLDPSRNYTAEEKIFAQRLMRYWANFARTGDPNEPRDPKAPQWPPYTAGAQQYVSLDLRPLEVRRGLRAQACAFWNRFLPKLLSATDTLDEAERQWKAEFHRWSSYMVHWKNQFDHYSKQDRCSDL

[6] = molecular target: Voltage-gated inwardly rectifying potassium channel KCNH2 (Homo sapiens, UniProt Q12809); format: functional
[7] = molecular target: T4, Amine oxidase [flavin-containing] A (Homo sapiens, UniProt P21397); format: functional
T4 sequence (P21397 whole entry): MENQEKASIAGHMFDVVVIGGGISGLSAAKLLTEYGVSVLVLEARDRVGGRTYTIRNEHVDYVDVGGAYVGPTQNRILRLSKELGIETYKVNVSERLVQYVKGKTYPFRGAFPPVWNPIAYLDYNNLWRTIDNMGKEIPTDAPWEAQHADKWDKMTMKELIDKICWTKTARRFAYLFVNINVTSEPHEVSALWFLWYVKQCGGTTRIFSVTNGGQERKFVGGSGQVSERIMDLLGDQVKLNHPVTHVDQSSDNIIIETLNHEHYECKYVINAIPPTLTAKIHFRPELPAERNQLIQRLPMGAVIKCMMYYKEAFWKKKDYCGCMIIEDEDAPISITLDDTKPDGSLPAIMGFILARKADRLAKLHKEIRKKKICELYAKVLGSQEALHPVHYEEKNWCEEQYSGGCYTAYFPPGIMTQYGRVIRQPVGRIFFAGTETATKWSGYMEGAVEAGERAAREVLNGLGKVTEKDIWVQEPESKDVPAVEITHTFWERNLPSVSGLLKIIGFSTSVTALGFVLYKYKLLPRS

[8] = molecular target: Sodium-dependent noradrenaline transporter (Homo sapiens, UniProt P23975)
Sodium-dependent noradrenaline transporter, sequence (P23975 whole entry): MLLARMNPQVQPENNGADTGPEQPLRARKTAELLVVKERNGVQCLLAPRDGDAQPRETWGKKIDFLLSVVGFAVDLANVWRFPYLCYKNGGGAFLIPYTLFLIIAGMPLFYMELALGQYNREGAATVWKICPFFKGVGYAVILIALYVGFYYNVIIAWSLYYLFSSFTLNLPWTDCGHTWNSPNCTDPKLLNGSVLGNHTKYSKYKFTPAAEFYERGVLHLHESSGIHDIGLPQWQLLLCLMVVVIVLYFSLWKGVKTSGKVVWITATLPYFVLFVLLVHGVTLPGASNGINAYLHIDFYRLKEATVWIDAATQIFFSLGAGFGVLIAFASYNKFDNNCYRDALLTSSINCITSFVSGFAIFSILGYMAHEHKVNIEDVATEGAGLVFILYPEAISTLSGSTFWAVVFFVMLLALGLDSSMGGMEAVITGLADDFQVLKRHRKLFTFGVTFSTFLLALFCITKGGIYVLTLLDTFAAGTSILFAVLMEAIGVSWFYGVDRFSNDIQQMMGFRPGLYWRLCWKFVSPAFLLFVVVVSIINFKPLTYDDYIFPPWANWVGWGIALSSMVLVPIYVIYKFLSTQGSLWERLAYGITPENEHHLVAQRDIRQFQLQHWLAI

[9] = molecular target: T2, Prostaglandin G/H synthase 1; format: functional; remark: listed apart in the source
Thromboxane A2 receptor [10] = molecular target: T5, Thromboxane A2 receptor (Homo sapiens, UniProt P21731); format: functional, cell-based
T5 sequence (P21731 whole entry): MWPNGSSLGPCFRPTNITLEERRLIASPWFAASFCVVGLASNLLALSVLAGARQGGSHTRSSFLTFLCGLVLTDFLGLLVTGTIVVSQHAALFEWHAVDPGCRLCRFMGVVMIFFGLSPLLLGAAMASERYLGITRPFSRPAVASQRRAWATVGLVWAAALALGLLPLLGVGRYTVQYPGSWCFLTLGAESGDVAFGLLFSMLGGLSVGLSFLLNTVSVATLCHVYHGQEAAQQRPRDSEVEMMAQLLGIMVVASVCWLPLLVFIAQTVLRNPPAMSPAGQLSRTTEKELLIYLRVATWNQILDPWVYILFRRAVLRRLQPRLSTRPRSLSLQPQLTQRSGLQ

[11] = molecular target: cGMP-inhibited 3',5'-cyclic phosphodiesterase 3A (Homo sapiens, UniProt Q14432); format: functional
cGMP-inhibited 3',5'-cyclic phosphodiesterase 3A, sequence (Q14432 whole entry): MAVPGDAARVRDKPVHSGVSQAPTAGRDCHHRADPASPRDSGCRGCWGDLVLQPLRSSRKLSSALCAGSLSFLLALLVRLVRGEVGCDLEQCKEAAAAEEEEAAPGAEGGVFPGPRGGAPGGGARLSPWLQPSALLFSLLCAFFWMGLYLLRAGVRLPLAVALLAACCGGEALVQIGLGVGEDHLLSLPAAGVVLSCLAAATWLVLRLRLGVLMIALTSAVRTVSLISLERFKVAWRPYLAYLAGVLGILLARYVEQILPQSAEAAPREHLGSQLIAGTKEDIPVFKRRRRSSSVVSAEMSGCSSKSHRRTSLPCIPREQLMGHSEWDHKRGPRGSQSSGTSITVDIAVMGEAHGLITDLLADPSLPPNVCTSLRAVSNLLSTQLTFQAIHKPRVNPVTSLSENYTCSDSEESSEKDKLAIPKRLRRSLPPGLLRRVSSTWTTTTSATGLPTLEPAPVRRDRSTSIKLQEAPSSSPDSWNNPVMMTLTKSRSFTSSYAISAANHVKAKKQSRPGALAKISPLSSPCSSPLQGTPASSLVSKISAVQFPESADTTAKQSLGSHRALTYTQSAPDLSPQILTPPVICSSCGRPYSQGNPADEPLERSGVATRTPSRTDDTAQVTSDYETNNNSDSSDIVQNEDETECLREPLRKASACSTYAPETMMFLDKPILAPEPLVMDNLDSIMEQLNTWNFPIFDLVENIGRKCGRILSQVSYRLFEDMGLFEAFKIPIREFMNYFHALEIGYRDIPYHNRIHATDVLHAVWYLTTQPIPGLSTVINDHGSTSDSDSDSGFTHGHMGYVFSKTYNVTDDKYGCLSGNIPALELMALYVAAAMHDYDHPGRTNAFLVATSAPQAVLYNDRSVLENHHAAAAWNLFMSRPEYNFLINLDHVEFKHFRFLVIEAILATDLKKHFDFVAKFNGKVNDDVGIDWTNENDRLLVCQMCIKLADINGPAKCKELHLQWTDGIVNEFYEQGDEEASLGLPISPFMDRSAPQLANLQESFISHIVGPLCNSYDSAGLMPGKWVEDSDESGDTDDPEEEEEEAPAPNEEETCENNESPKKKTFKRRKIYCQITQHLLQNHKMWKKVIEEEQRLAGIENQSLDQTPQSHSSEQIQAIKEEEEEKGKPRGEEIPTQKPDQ

Thromboxane A2 receptor [12] = molecular target: T5, Thromboxane A2 receptor; format: functional, cell-based; remark: listed apart in the source
Also: assay procedure not described here.

3',5'-cyclic-AMP phosphodiesterase 4A, sequence (P27815 whole entry): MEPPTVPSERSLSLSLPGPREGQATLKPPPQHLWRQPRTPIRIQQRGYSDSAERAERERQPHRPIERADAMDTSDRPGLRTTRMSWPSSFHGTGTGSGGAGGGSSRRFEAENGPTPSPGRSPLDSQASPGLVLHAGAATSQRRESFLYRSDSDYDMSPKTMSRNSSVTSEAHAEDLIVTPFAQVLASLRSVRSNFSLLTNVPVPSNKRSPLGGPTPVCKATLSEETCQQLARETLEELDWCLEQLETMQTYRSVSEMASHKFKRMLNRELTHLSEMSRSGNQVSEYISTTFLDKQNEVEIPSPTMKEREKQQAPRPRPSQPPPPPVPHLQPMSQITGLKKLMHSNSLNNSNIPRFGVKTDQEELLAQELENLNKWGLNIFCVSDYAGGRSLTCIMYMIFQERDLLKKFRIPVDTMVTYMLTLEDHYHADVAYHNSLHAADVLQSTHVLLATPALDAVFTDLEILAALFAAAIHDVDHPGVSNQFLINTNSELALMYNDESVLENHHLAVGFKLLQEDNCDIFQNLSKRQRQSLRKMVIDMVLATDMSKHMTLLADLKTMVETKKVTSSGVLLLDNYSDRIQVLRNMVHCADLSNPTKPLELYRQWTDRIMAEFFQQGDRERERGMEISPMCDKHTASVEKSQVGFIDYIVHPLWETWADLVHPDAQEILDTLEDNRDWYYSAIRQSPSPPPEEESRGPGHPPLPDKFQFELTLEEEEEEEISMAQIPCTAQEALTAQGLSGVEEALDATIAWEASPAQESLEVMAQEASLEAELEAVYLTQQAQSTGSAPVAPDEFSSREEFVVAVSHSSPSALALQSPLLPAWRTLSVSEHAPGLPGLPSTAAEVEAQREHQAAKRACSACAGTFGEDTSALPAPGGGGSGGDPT

SMILES	AC50 [1] [µM]	AC50 [2] [µM]	AC50 [3] [µM]	AC50 (Bile salt export pump) [µM]	AC50 (Mu-type opioid receptor) [µM]	AC50 (D(3) dopamine receptor) [µM]	AC50 [4] [µM]	AC50 (D(1A) dopamine receptor) [µM]	AC50 [5] [µM]	AC50 (Histamine H3 receptor) [µM]	AC50 (Acetylcholinesterase) [µM]	AC50 [6] [µM]	AC50 [7] [µM]	AC50 [8] [µM]	AC50 [9] [µM]	AC50 (Thromboxane A2 receptor [10]) [µM]	AC50 [11] [µM]	AC50 (Thromboxane A2 receptor [12]) [µM]
OC[C@@H](O)[C@@H](O)[C@H](O)[C@@H](O)CO [SORBITOL]	> 30	> 30	> 30	> 300	> 30	> 30	> 30	> 30	> 30	> 30	> 30	> 30	> 30	> 30	> 30	> 30	> 30	> 30
OC[C@H]1O[C@@H](c2ccc(Cl)c(Cc3ccc(O[C@H]4CCOC4)cc3)c2)[C@H](O)[C@@H](O)[C@@H]1O [EMPAGLIFLOZIN]	> 30	> 30	> 30	> 300	> 30	> 30	> 30	> 30	> 30	> 30	> 30	> 30	> 30	> 30	> 30	> 30	> 30	> 30
C[C@@H]1C[C@H]2[C@@H]3CCC4=CC(=O)C=C[C@]4(C)[C@@]3(Cl)[C@@H](O)C[C@]2(C)[C@@]1(OC(=O)c1ccco1)C(=O)CCl [MOMETASONE FUROATE]	> 30	> 30	> 30	2.4	> 30	> 30	13.7	> 30	> 30	> 30	> 30	> 30	> 30	> 30	> 30	> 30	> 30	> 30
COc1cc2nccc(Oc3ccc(NC(=O)C4(C(=O)Nc5ccc(F)cc5)CC4)cc3)c2cc1OC [CABOZANTINIB]	> 30	> 30	> 30	8.8	> 30	> 30	> 30	4.42	9.32	> 30	> 30	8.3	25.4	> 30	> 30	> 30	27.9	17.5
Cc1ccccc1C(=O)Nc1ccc(C(=O)N2CCCC(N(C)C)c3ccccc32)cc1 (configuration not stated) [MOZAVAPTAN]	> 30	> 30	5.8	14	2.48	> 30	> 30	> 30	> 30	> 30	> 30	> 30	> 30	> 30	> 30	> 30	> 30	> 30
C[N+](C)(C)C[C@H](O)CC(=O)[O-] [LEVOCARNITINE]	> 30	> 30	> 30	> 300	> 30	> 30	> 30	> 30	> 30	> 30	> 30	> 30	> 30	> 30	> 30	> 30	> 30	> 30
CC(C)(O)CNc1nc(Nc2ccnc(C(F)(F)F)c2)nc(-c2cccc(C(F)(F)F)n2)n1 [ENASIDENIB]	> 30	> 30	> 30	5.3	21.5	> 30	9.18	> 30	> 30	> 30	> 30	> 30	> 30	> 30	14.1	> 30	> 30	7.09
Cc1onc(-c2ccccc2)c1C(=O)N[C@@H]1C(=O)N2[C@@H]1SC(C)(C)[C@@H]2C(=O)O [OXACILLIN]	> 30	> 30	> 30	220	> 30	> 30	> 30	> 30	> 30	> 30	> 30	> 30	> 30	> 30	> 30	> 30	> 30	> 30
O=C(O)COc1ccc(C(=O)c2cccs2)c(Cl)c1Cl	> 30	> 30	> 30	> 300	> 30	> 30	> 30	> 30	> 30	> 30	> 30	> 30	> 30	> 30	> 30	> 30	> 30	> 30
